Measured values taken from patent US9458102B2 (priority 2011, dated 2016).

Tests used:
[1] = biological target: T1, Butyrylcholinesterase purified from human blood serum (Homo sapiens, UniProt P06276); assay: In vitro hydrolysis by serum cholinesterase (butyrylcholinesterase); assay type: in vitro ADME; settings: for hydrolysis product after incubation with butyrylcholinesterase: 24-hour incubation
T1 construct: Butyrylcholinesterase purified from human blood serum; purchased Sigma; host or cells: purified from human blood serum
Description: Compound 1 is rapidly hydrolyzed by butyrylcholinesterase in the bloodstream. Butyrylcholinesterase purified from human blood serum was used to test the resistance of the disclosed compounds to hydrolysis.
All enzymatic assays were performed with 50 μM compound in 0.1M phosphate buffer, pH 7.4, at 37° C. with stirring, unless otherwise noted. Butyrylcholinesterase stock solutions from human serum (Sigma, St. Louis, Mo.) were prepared at 100 U/mL in 0.1 M phosphate buffer, pH 7.4, and stored at −20° C. until use. Hydrolysis was monitored on an 8452A diode array spectrophotometer (Hewlett-Packard). Product peak wavelength absorption was immediately monitored upon addition of compound. Absorbances for complete hydrolysis were determined when there were no further detectable changes. […] All hydrolysis assays were performed in triplicate, and final rate constants are expressed as the mean±SD of the three individually determined rate constants. In some experiments with compound 1, samples were taken at the beginning and end of the assay to verify the hydrolysis product and the completion of the reaction by HPLC. These samples were compared to compounds 1 and 3 on a C18 column eluted with 0.1% TFA in water/acetonitrile. Activity of chymotrypsin (bovine, Worthington Biochemical Co., 190 μg/mL) was verified with 90 μM 4-nitrophenyl acetate in 0.1 M HEPES solution, pH 6.5, at 37° C. with stirring. Hydrolysis product was monitored at 404 nm for 10 min. Activity of proteinase K (from Engyodontium album, Sigma, 165 μg/mL) was verified with 16.5 mg/mL bovine serum albumin in 0.1 M phosphate buffer, pH 7.4, at 37° C. Samples were taken at time point increments up to 2 hours when the reaction reached completion. Samples were analyzed with 12% SDS-PAGE, stained with 0.1% Coomassie Blue.

[2] = test system: heteromeric rod CNG channels consisting of CNGA1 and CNGB1 subunits; assay: CNG channel block at subsaturating cGMP (state dependence of block); assay type: cell-based; settings: subsaturating cGMP (50 or 100 μM), +50 mV, normalized to KD at 2 mM cGMP
Description: KD values at saturating cGMP were corrected for ion accumulation. Solid lines indicate simulations for exclusive closed channel blockers, using KD/KDsat=(1−Fsat)/(1−FsatI/Imax), where Fsat is the estimated fraction of open heteromeric rod channels in saturating cGMP assuming Fsat=0.3 (a), 0.56 (b), or 0.78 (c). The dotted line is a simulation for a blocker with no preference for state, or KD/KDsat=1. The dashed line is a simulation for an exclusive open channel blocker, using KD/KDsat=(I/Imax)^−1.
The solid lines in FIG. 4 marked a, b, and c represent the expected relationship between KD and the fraction of closed channels for an exclusive closed channel blocker. Each of a, b, and c uses one estimate for the probability of closed heteromeric retinal rod channels at saturating cGMP. The simulations are described in the following references: Matthews G et al, J Physiol 403, 389-405 (1988); Taylor W R & Baylor D A, J Physiol 483 567-582 (1995); and Bucossi G et al, Biophys J 72, 1165-1181 (1997), all of which are incorporated by reference herein. The dotted line represents a simulation of a blocker with no preference as to conformational of the channel. The dashed line represents a simulation for an exclusive open channel blocker.
Recordings from inside-out excised patches were made 3-7 days after oocyte injection on an Axopatch 1D® amplifier (Axon Instruments, Foster City, Calif.). Briefly, oocyte vitelline membranes were removed in solution containing 200 mM K aspartate, 20 mM KCl, 1 mM MgCl2, 10 mM EGTA, 10 mM HEPES, pH 7.4. Oocytes were placed in a recording chamber in a solution containing 130 mM NaCl, 2 mM HEPES, 0.02 mM EDTA, 1 mM EGTA, pH 7.6, and borosilicate glass electrodes (1-3 MΩ) were filled with identical solution. Macroscopic currents were filtered at 1 kHz and sampled at 2 kHz using pCLAMP 8.0® software (Axon Instruments). Channels were either fully activated with 2 mM or partially activated with 50 and 100 μM cGMP. […] Glass syringes and Teflon tubing were used to minimize the binding of compounds to surfaces; concentrations passing through the perfusion system were verified by absorbance. Current traces were digitally filtered at 300 Hz (Gaussian) and averaged using Clampfit 8.2® software. Currents in the absence of cGMP were subtracted from all currents analyzed. KD values were determined and expressed as the mean±SD.

T1 sequence (P06276 29-602): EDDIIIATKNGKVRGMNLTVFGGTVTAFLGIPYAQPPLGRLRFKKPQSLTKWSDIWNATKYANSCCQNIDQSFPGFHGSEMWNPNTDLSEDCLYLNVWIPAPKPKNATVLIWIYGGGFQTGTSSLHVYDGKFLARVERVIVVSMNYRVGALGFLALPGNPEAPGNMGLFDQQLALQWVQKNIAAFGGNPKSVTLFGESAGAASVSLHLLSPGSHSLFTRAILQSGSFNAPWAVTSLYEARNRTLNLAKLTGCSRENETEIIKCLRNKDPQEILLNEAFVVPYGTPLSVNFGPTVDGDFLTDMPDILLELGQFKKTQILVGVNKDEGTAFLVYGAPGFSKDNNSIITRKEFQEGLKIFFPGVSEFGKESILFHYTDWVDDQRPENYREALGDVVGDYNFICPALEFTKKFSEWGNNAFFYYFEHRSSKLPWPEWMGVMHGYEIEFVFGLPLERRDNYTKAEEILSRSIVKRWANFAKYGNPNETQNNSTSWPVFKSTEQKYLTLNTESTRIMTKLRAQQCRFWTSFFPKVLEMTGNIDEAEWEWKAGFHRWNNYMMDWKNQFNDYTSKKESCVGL

| SMILES | Hydrolysis rate ([1]; 50 μM compound, 0.1M phosphate buffer pH 7.4, 37° C., mean±SD of triplicate) [nmol/min/mg] | state dependence of block (KD vs fraction of closed channels) [2] | hydrolysis product after incubation with butyrylcholinesterase [1] |
| --- | --- | --- | --- |
| CCCCCCCCNc1ccc(C(=O)OCCN(C)C)cc1 [Compound 5, 2-(Dimethylamino)ethyl 4-(Octylamino)benzoate, reference compound] | 213 ± 31 | better fit the results expected of a closed channel blocker |  |
| CCCCNc1ccc(C(=S)NCCN(C)C)cc1 [Compound 8, 4-(Butylamino)-N-(2-(dimethylamino)ethyl)benzothioamide] |  | better fit the results expected of a closed channel blocker | no hydrolysis product was detected |
| CCCCCCCCNc1ccc(C(=S)NCCN(C)C)cc1 [Compound 9, 4-(Octylamino)-N-(2-(dimethylamino)ethyl)benzothioamide] |  | better fit the results expected of a closed channel blocker | no hydrolysis product was detected |
